Paper PMC12040169 (PLOS Biology, 2025)

Test: in vitro
Conditions: human, hela cells, % viability

| SMILES | viability at 28.5 h, 10 µM |
| --- | --- |
| CCCCC1C(=O)N(C)CCN1C(=O)c1cc(C)c(CC)n(C)c1=O (stereo not shown) [CBK306527] | 91.2% |
| O=C(c1ccno1)n1nccc1-c1cc(-c2ccccc2)no1 [CBK022074] | 101% |
| CCOc1ccc(S(=O)(=O)NCCOC)cc1Cl [CBK270251] | 91.5% |
| CC(=O)N1CCN(Cc2c(C(F)(F)F)[nH]c3ncc(C)cc23)CC1 [CBK284768] | 93.1% |
| CS(=O)(=O)c1ccc(-c2ccnc3nc(N)ccc23)cc1 [CBK067648] | 117% |
| C[C@H](Nc1nccnc1-c1ccco1)c1ccccc1 [CBK037032] | 93.1% |
| O=C1c2ccc(Oc3cccc(Oc4ccc5c(c4)C(=O)N(CCO)C5=O)c3)cc2C(=O)N1CCO [CBK261398] | 110% |
| Cc1noc(C)c1NC(=O)c1c(-c2ccccc2)noc1C [CBK200314] | 91.8% |
| NC(=O)c1ccc(-c2ccc(/C=C3/C(=O)NN(c4ccc(F)cc4)C3=O)o2)cc1 [CBK098345] | 89.9% |
| CN1CCN(c2ccc(-c3cnc4[nH]c(=O)n(C5CC5)c4n3)cc2)CC1 [CBK064899] | 89.7% |
| Cc1nc2cc(NC(=O)Cc3c(C)nc4ccccc4c3C)ccc2o1 [CBK297083] | 110% |
| CCOc1ccc(-c2cncc(Nc3ccc4c(c3)OC(F)(F)C(F)(F)O4)n2)cc1 [CBK065728] | 96.8% |
| OC1(c2ccc(F)cc2)COC2(CCNCC2)C1 (stereo not shown) [CBK284214] | 93.6% |
| Cc1ccnc(NS(=O)(=O)c2ccc(NC(=O)c3cc(-c4ccc(Br)cc4)nc4ccccc34)cc2)n1 [CBK263650] | 96.8% |
| O=C(O)CCNS(=O)(=O)c1ccc2[nH]c(=O)[nH]c2c1 [CBK266906] | 91% |
| NC(=O)NC(CC(=O)N1CCCC1c1ccncc1)c1cccc(Br)c1 (stereo not shown) [CBK306345] | 92.7% |
| COc1cncc(-c2cnc(N)c(N3CCOCC3)n2)c1 [CBK063360] | 96.7% |
| C/C(=N\NC(=O)CN(c1ccc(C)cc1)S(=O)(=O)c1ccccc1)c1ccc(Cl)cc1 [CBK262229] | 93.3% |
| Cc1ncsc1C(=O)N1CCCCC1c1nc2ccccc2[nH]1 (stereo not shown) [CBK283531] | 95.9% |
| O=C(Cn1c(C2CCNCC2)cc2cccnc21)NC1CCCC1 [CBK285002] | 104% |
| OC(CSc1ccccc1)CN1CCC(Nc2nccc(C(F)(F)F)n2)CC1 (stereo not shown) [CBK074648] | 94.5% |
| CN1CCC(N(C)C(=O)c2cc3oc(-c4ccccc4)nc3c(=O)n2C)C1 (stereo not shown) [CBK200424T] | 93.9% |

| SMILES | viability at 28.5 h, 10 µM |
| --- | --- |
| Cc1ccc(-c2nn3c(C)nnc3s2)cc1NC(=O)c1ccc([N+](=O)[O-])o1 [CBK267247] | 95.2% |
| CN1CC(=O)N(CC(=O)N2CC=C(c3ccccc3)CC2)c2ccccc2C1=O [CBK294433] | 88% |
| CS(=O)(=O)Nc1ncc(-c2ccco2)cc1C(=O)NCc1nc2ccccc2[nH]1 [CBK076468] | 103% |
| NC1=NN2C(=C(c3ccc(O)c(C(=O)O)c3)NN2c2ccccc2)N1 [CBK025631] | 95.2% |
| CC(C)COc1ccc(-c2nn(-c3ccccc3)cc2CSC(=N)N)cc1 [CBK264278C] | 0.298% |
| O=C(Nc1cccc(N2CCNCC2)c1)c1ccnc2ccccc12 [CBK029416T] | 95.5% |
| CCOc1cc(/C=C2\SC(=S)N(NC(=O)c3cccnc3)C2=O)ccc1O [CBK262759] | 105% |
| CCc1nccn1CCC(=O)NC1CCN(Cc2ccncc2)CC1 [CBK306813] | 107% |
| CC1(C(C)(O)C(F)F)OC(NC2C3CC4CC(C3)CC2C4)=NC1=O (stereo not shown) [CBK137190] | 103% |
| CCCn1c(CN2CCOCC2)nc2c1c(=O)n(C)c(=O)n2C [CBK305911] | 103% |
| COc1ccc(CNC(=O)C2CCCN(c3cnc4ccccc4n3)C2)cc1 (stereo not shown) [CBK287772] | 112% |
| CCOC(=O)C1CCN(C(=O)Nc2cc(C)on2)CC1 [CBK306280] | 88.5% |
| CN1CCN(c2ccc(-c3cccc(N(C)C)c3)cn2)CC1 [CBK037621] | 102% |
| O=C(Cn1ccnc1)N1CCCCC1c1nc2ccccc2[nH]1 (stereo not shown) [CBK283936] | 107% |
| CC(=O)c1c(CSc2ccccc2)nn2c1CCCC2 [CBK016543] | 78.9% |
| CCC(NC(=O)Nc1cc(N2CCOCC2)ccc1Cl)c1nccs1 (stereo not shown) [CBK306519] | 93.2% |
| CC(C)Nc1cc(OCc2ccc(-c3ccccc3)cc2)ncn1 [CBK115658] | 103% |
| CC(=O)Nc1ccccc1-c1nc2ccccc2o1 [CBK287568] | 100% |
| COc1cc(-c2nc(N)cc3cccnc23)cc(OC)c1OC [CBK061892] | 101% |
| O=c1[nH]cnc2c1cnn2Cc1ccccc1Cl [CBK287999] | 97.1% |
| O=[N+]([O-])c1ccc2c(c1)C(N1CCOCC1)/C(=C/COc1ccc3ccccc3c1Br)O2 (stereo not shown) [CBK262738] | 97.1% |
| O=C(c1ccccc1)N1CCN(Cc2cc(=O)n3ccsc3n2)CC1 [CBK306095] | 94.4% |

| SMILES | viability at 28.5 h, 10 µM |
| --- | --- |
| O=C(Nc1ccccc1C(=O)O)c1cc(S(=O)(=O)Nc2ccc(F)cc2)ccc1Cl [CBK263248] | 120% |
| NC(=O)CSc1nc(NCc2ccccc2)nc(N2CCOCC2)n1 [CBK268923] | 93.3% |
| CCNC(=O)N1CC2(CCN(Cc3ccc(Cl)c(Cl)c3)CC2)c2ccccc21 [CBK126690] | 95.4% |
| CCNc1nccnc1-c1cnc(OC)nc1OC [CBK088587] | 93.9% |
| CCn1ncnc1CN1CCN(C2Cc3ccccc3C2)CC1 [CBK304401] | 101% |
| C#CCNC(=O)c1nn(-c2nc3ccccc3s2)c2ccccc12 [CBK048486] | 99.2% |
| CC(C)(C)C(=O)NCCn1nc(-c2cccs2)ccc1=O [CBK283839] | 103% |
| CCOc1ccc(-c2cc(C(=O)NCc3cc(OC)ccc3OC)n[nH]2)cc1 [CBK288116] | 85.7% |
| COC(=O)c1cccc(C(=O)Nc2ncc(-c3ccccc3)s2)c1 [CBK298294] | 89.7% |
| CN(CCN(C)/N=C/c1cccc2ccccc12)/N=C/c1cccc2ccccc12 [CBK262153] | 107% |
| O=C(O)CCCC(=O)NNC(=O)c1cccc(Br)c1 [CBK263530] | 99.9% |
| O=C(Cn1nc2n(c1=O)CCCCC2)NCc1ccccc1Cl [CBK304642] | 86.6% |
| O=C(O)COCc1nn(-c2ccc(Br)cc2)c2c1CCCC2 [CBK016404] | 98.6% |
| c1ccc(NCCOc2cncc(N3CCCC3)n2)cc1 [CBK115670] | 101% |
| COc1cccc(CC(=O)N2[C@H](Cc3ccccc3)C[C@@H]3NCCCCC[C@H]32)c1 [CBK286030] | 105% |
| O=C(O)CCc1nn2c3ccccc3n(CCN3CCCCC3)c2nc1=O [CBK267519] | 97.5% |
| O=C1CCCN1CCC1CCN(c2nccc(CCC(F)(F)F)n2)CC1 [CBK307534] | 90.1% |
| CCc1nccn1CCCNC(=O)Nc1cccnc1 [CBK306736] | 94.6% |
| Cc1ccc(NC(=O)CSc2nnc3c4c5c(sc4nc(-n4nc(C)cc4C)n23)COC(C)(C)C5)cc1 [CBK268675] | 93.2% |
| Cc1sc(NC(=O)CN(Cc2cnn(C)c2)C(C)C)c(C#N)c1C [CBK306303] | 93.1% |
